Results published in patent US20140227741A1, “Biological Systems for Production of Highest Quality Proteins” (Mediterranean Institute for Life Sciences, priority 2012, published 2014).

Assays:
[1] = test system: reactive oxygen species (ROS) level; assay: Effect of 1 mM trolox on reactive oxygen species (ROS) level; format: cell-based, E. coli
Source text: (§1) The functional defects of proteins, correlating with their oxidative damage (carbonylation), can be suppressed by antioxidants in proportion to the extent of the decrease in protein carbonylation. This is illustrated by the effects of trolox (6-hydroxy-2,5,7,8-tetramethylchroman-2-carboxylic acid) on the reduction of ROS species levels and PC levels as given in Table 2.

[2] = test system: protein carbonylation (PC) amount; assay: Effect of 1 mM trolox on protein carbonylation (PC) amount; format: cell-based, E. coli
Source text: as §1
The procedure for the quantification of protein carbonylation by ELISA method is as follows. The steps of protein extraction are as described in Example 1 (steps 1 and 2). Protein […] concentration is determined and adjusted so that the proteins are loaded into ELISA wells at 10 μg/mL. Adsorbed proteins are derivatized by using 12 μg/mL DNPH. Derivatization of adsorbed proteins is followed by detection of derivatized dinitrophenol (DNP)-carbonyl by a rabbit anti-DNP primary antibody (Sigma, D9656) and goat anti-rabbit secondary antibody conjugated to HRP (Jackson ImmunoResearch, 111-035-14). Stocks of antibodies were prepared at ˜1 ug/uL and used at 1:7000 dilutions.

SMILES: Cc1c(C)c2c(c(C)c1O)CCC(C)(C(=O)O)O2 (stereo not drawn) [trolox, 6-hydroxy-2,5,7,8-tetramethylchroman-2-carboxylic acid]
- ROS reduction ([1]; strain wt): 0.41
- ROS reduction ([1]; strain ΔdnaK): 0.41
- ROS reduction ([1]; strain Δtig): 0.45
- PC reduction ([2]; strain wt): 0.26
- PC reduction ([2]; strain ΔdnaK): 0.25
- PC reduction ([2]; strain Δtig): 0.33
